Data on 18 molecules can be found in ChEMBL document CHEMBL1138256 (Bioorg Med Chem Lett, 2007).

SMILES strings stand for the structures. Active and inactive are the calls of the source. The calls are words filed in the database; no cut-off is given here.

Assay [1] in a line: (§1) Inhibition of Clostridium botulinum A recombinant light chain protease LC/A by FRET assay.
Assay [2] concerns Clostridium botulinum. The assay is described as follows: Inhibition of Clostridium botulinum A recombinant light chain protease LC/A by at 100 uM by FRET assay.
Assay [3] concerns Clostridium botulinum. Described as §1.

In the case of `O=C(/C=C/c1ccc(Cl)cc1Cl)NO` [CINNAMIC ACID HYDROXAMATE], the IC50 in assay [1] stood at 0.9 µM.

With `O=C(/C=C/c1ccc(Cl)cc1[N+](=O)[O-])NO`, in assay [1], the IC50 is 2 µM.

In the case of `O=C(/C=C/c1ccc(Cl)cc1O)NO`, the IC50 in assay [1] was determined as 13 µM.

Turning to `Cn1c(C(=O)NO)cc2ccc(Cl)cc21`, in assay [1], the IC50 is 38 µM.

With `N#Cc1cc(Cl)ccc1/C=C/C(=O)NO`, the IC50 in assay [1] was 12 µM.

Take `O=C(/C=C/c1ccc(Cl)cc1F)NO`: in assay [1], the IC50 turned out to be 4.4 µM.

As to `O=C(/C=C/c1ccc(Cl)cc1C(F)(F)F)NO`, the concentration for half-maximal inhibition (IC50) in assay [1] stood at 0.6 µM.

`CS(=O)(=O)c1cc(Cl)ccc1/C=C/C(=O)NO`: the IC50 in assay [1] was 17 µM.

`O=C(NO)c1ccc2cc(Cl)ccc2c1`: in assay [1], the IC50 came out at 21 µM.

As for `Nc1cc(Cl)ccc1/C=C/C(=O)NO`, the IC50 in assay [1] was determined as 25 µM.

For the molecule `COc1cc(Cl)ccc1/C=C/C(=O)NO`, in assay [1], the IC50 amounted to 9 µM.

As to `CSc1cc(Cl)ccc1/C=C/C(=O)NO`, the IC50 in assay [1] turned out to be 5.1 µM.

For `O=C(NO)c1cc2ccc(Cl)cc2s1`, in assay [1], the IC50 was 45 µM.

Take `O=C(/C=C/c1ccc(Cl)cc1Br)NO`: in assay [1], the 50% inhibitory concentration (IC50) is 0.7 µM.

For the molecule `O=C(NO)c1ccc2cc(Br)ccc2c1`, in assay [1], the concentration for half-maximal inhibition (IC50) amounted to 71 µM.

Turning to `O=C(NO)c1cc2ccc(Cl)cc2[nH]1`, the result in the assay with Clostridium botulinum [2] and with Clostridium botulinum [3] was inactive.

As to `Cc1cc(Cl)ccc1/C=C/C(=O)NO`, in assay [1], the concentration for half-maximal inhibition (IC50) is 0.8 µM.

With `O=C(NO)C1=Cc2ccc(Cl)cc2C1`, the IC50 in assay [1] came to 41 µM.

For orientation: IC50 means the concentration at which inhibition is half-maximal.
